Test results reported in US10144737B2 (ETERNITY BIOSCIENCE INC., priority 2014, dated 2018).

Key:
Btk = molecular target: T1, Btk (Homo sapiens, UniProt Q06187); test: Btk kinase assay (ADP-Glo); type: biochemical; settings: ADP-Glo Btk kinase assay kit; ATP 1.2 μM; 60 minutes at room temperature
T1 construct: purchased Promega (Madison, Wis.)
Procedure, shortened: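 Luminescent ADP detection after a 60 min reaction at 22±1 °C containing Btk 2 ng/μl, 1.2 μM ATP, 0.3 μM poly GT peptide and 1.4 mM MnCl2. IC50 from log concentration versus percent inhibition relative to DMSO vehicle.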

TMD-8 cells = test: Cell proliferation assay (CellTiter-Glo), TMD-8 cells; type: cell-based; settings: Homo sapiens, TMD8, 120 h, 5-day treatment, read-out: TMD8 cell growth (GI50 μM)
Procedure, shortened: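 TMD-8 cells seeded at 5,000–10,000/well, cultured overnight, then exposed to compound (vehicle 0.5% DMSO) for 5 days at 37 °C. Growth read by CellTiter-Glo luminescence; IC50 from log concentration versus % growth inhibition relative to vehicle.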

T1 sequence (Q06187 whole entry): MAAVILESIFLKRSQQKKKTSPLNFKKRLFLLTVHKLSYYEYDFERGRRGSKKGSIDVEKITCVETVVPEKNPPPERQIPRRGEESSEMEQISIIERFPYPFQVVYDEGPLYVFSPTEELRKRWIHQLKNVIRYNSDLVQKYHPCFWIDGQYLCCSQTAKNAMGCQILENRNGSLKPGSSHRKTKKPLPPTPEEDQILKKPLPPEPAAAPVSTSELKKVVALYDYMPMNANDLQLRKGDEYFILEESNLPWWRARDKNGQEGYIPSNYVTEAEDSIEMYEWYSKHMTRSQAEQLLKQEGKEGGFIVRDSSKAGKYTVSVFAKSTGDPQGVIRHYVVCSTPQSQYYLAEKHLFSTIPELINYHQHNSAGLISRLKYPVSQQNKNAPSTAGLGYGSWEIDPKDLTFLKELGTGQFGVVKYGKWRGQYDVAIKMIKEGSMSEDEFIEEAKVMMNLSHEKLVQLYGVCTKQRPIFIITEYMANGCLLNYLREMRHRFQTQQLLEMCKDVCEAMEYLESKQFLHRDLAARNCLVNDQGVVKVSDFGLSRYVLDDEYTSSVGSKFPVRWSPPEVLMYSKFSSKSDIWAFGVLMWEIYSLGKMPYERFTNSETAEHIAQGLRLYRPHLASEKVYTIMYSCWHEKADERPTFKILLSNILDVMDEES

Row | IC50 (Btk) | Compound | GI50 (TMD-8 cells)
1 | 215 nM | C=CC(=O)N1CC[C@@H](Nc2ncnc3[nH]c(C#Cc4ccc(OC(F)(F)F)cc4)cc23)C1 [Example 66, (R)-1-(3-((6-((4-trifluoromethoxyphenyl)ethynyl)-7H-pyrrolo[2,3-d]pyrimidin-4-yl)amino)pyrrolidin-1-yl)prop-2-en-1-one] | 0.0012 µM
2 | 0.03 nM | C=CC(=O)N1CC[C@@H](Nc2ncnc3[nH]c(C#Cc4ccc5occc5c4)cc23)C1 [Example 74, (R)-1-(3-((6-(benzofuran-5-ylethynyl)-7H-pyrrolo[2,3-d]pyrimidin-4-yl)amino)pyrrolidin-1-yl)prop-2-en-1-one] | 0.0012 µM
3 | 0.1 nM | CN(C)C/C=C/C(=O)N1CCC(Nc2ncnc3[nH]c(C#CCOc4ccccc4)nc23)C1 (stereo not drawn) [Example 10, (E)-4-(dimethylamino)-1-(3-((8-(3-phenoxyprop-1-yn-1-yl)-9H-purin-6-yl)amino)pyrrolidin-1-yl)but-2-en-1-one] | 0.171 µM
